Consider five molecules from patent publication US8128943B2, “Use of oxazole derivatives for controlling fish parasites” (Novartis AG, priority 2005, dated 2012).

Data set [1] has as its system salmon lice. Put plainly: Toxicity to salmon lice, contact action test in sea water beakers. It counts as in vivo, salmon louse. The following applies: after 24 hours; lowest concentration of 5 μg/l in sea water, 10° C.; adult salmon lice. The method, then: Biological Examples 1. Toxicity to Salmon Lice (In Vitro Test) a) Collecting and Cultivating the Salmon Lice
Adult and pre-adult stages of the salmon louse are gently removed with broad forceps from naturally infected Atlantic salmon which have been kept in fish farms, separated according to stage and sex, and kept in sea water tanks at 10° C. and under continuous aeration. The sea water used for cultivating the lice comes from the fish farm from which the infected salmon have been taken. The tests themselves are carried out over 48 hours after collecting the lice.
b) In Vivo Test for Determining the Contact Action of the Control Agent
Into each of three test sets of three 500 ml-glass beakers, filled with sea water (salinity […], temperature 10° C.) containing 5, 500 and 5000 μg/l of the active substance, respectively, 5 female and 5 male adults of salmon lice are added. The beaker are then transferred to an incubator and held at 10° C. for 48 hours in the dark. Live survival of the salmon lice is determined at 1, 24 and 48 hours from the start of the exposure. All lice are examined and recorded as alive, moribund or dead.

Another data set concerns fish. Put plainly: Tolerance by fish in long lasting tests on salmon. It counts as in vivo.
Data set [2] concerns salmon lice. The data set can be described thus: Toxicity against salmon lice (in vivo test) on naturally infected Atlantic salmon, bath treatment. Particulars: long lasting tests on salmon; one single treatment at 0.1 ppm. The method, then:
2. Toxicity Against Salmon Lice (In Vivo Test)
Five naturally infected Atlantic salmon are taken from the cage and transferred to well aerated sea water tanks. They remain there for 48 hours for acclimatization, and feed is withheld for 24 hours before the addition of test compound. A group of 5 salmon is treated at a concentration of 1.0 ppm of test compound, and a second group of 5 salmon is treated at a concentration of 0.1 ppm. The fish are kept for 24 hours in fresh sea water (without test compound) and a count is then made of dead and still living parasites. An untreated group of fish is also included in the evaluation. The test is carried out in triplicate.

In another data set the test system is sea lice. Particulars: in sea water; cited from earlier work.

SMILES strings stand for the structures. Where only a bound is given, the exact number is not on record here.

For `FC(F)(F)c1ccc(-c2ccc(C3COC(c4c(Cl)cccc4Cl)=N3)cc2)cc1` (centres unmarked) [2-(2,6-Dichlorophenyl)-4-(4′-trifluoromethylbiphenyl-4-yl)-4,5-dihydro-oxazole], the survival rate with salmon lice [1] stood at 0%.
The molecule `Fc1cccc(F)c1C1=NC(c2ccc(-c3ccc(C(F)(F)F)cc3)cc2)CO1` (centres unmarked) [2-(2,6-Difluorophenyl)-4-(4′-trifluoromethylbiphenyl-4-yl)-4,5-dihydro-oxazole] gave a survival rate in the data set with salmon lice [1] of 0%. Besides, the tolerance by fish entry with fish is “well tolerated by fish”. Besides, in the data set with salmon lice [2], the control is 100% and the “duration of 100% control” value is listed as “at least 3 month”.
On to `Fc1cccc(Cl)c1C1=NC(c2ccc(-c3ccc(C(F)(F)F)cc3)cc2)CO1` (centres unmarked) [2-(2-Chloro-6-fluorophenyl)-4-(4′-trifluoromethylbiphenyl-4-yl)-4,5-dihydro-oxazole], for which the survival rate in the data set with salmon lice [1] is 0%.
As to `COP(=O)(OC)OC=C(Cl)Cl` [Dichlorvos, 2,2-dichloroethenyldimethyl phosphate], in the data set with sea lice, the “concentration required / effective to combat sea lice” value was not below 1 ppm.
Take `COP(=O)(OC)C(O)C(Cl)(Cl)Cl` (centres unmarked) [Trichlorfon, dimethyl-2,2,2-trichloro-1-hydroxyethylphosphonate]: in the data set on sea lice, the “concentration required / effective to combat sea lice” value was 300 ppm.
